# Measurements: patent US20180362935A1, “A renal cell line with stable transporter expression” (Stichting Katholieke Universiteit, priority 2015, published 2018)
# Several values for one entry are separate records, joined by “and”; a condition that tells them apart may be missing. Identical values can stand only once. Like-named read-outs stand apart in the source and are kept apart here.
# What was measured:
# [1] = Varma et al., 2009; cited from earlier work
# ciPTEC parent = assay: MTT viability assay in ciPTEC parent; assay type: cell-based, human; conditions: 10×Cmax (50 μM), with MRP4 inhibitor MK571 and BCRP inhibitor KO143
# Experimental: (§1) Briefly, monolayers of ciPTEC (96-wells) were exposed to antivirals in serum-free medium (SFM) on day 6 of maturation. Cell toxicity was analyzed further in presence of multidrug resistance protein (MRP) efflux inhibitor MK571 (5 μM) and breast cancer resistance protein (BCRP) efflux inhibitor KO143 (10 μM). After incubation for 24, 48 and 72 h at 37° C., ciPTEC were washed and incubated with 0.5 mg/ml thiazolyl blue tetrazolium bromide (MTT, Sigma) for 3 h at 37° C. in absence of antivirals. Formazan crystals formed in viable cells were dissolved in dimethyl sulfoxide (DMSO, Merck, Whitehouse Station, USA) and optical density was measured (560 nm, background at 670 nm was subtracted) using Benchmark Plus (Bio-Rad, Hercules, USA).
# (§2) Non-linear regression with variable slope constraining the top to 100% was used to fit the data after background subtraction with GraphPad Prism. Statistics was performed by two-way ANOVA (two-tailed, α=0.05) using GraphPad Prism as well. All data is presented as mean±SEM of at least three separate experiments (n=3) performed in triplicate, unless stated otherwise.
# ciPTEC-OAT3 = assay: MTT viability assay in ciPTEC-OAT3
# Experimental: as §1, §2
# ciPTEC-OAT1 = assay: MTT viability assay in ciPTEC-OAT1; assay type: cell-based, human; conditions: for Cell viability (MTT) relative to no exposure: ciPTEC-OAT1, 1 mM, 48 h; for IC50: serum free medium, mean ± SEM, n ≥ 3
# OAT3 = molecular target: T1, OAT3 (Homo sapiens, UniProt Q8TCC7)
# T1 sequence (Q8TCC7 1-542): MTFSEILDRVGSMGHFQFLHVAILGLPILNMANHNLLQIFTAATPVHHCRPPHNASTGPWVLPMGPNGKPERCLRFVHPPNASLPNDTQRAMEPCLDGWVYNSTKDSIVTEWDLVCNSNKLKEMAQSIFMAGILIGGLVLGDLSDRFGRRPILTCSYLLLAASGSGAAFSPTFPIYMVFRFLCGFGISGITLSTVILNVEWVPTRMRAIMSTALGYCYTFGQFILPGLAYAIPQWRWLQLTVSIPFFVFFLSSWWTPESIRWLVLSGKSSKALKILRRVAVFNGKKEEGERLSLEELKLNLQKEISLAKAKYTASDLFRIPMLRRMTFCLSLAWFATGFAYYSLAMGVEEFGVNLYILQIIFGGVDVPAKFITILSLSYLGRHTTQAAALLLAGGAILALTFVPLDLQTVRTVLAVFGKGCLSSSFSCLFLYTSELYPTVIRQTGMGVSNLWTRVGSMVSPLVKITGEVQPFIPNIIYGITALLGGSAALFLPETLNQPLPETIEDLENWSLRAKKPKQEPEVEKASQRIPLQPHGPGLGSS
# Xenopus-OAT3 = molecular target: T2, Xenopus-OAT3 (Homo sapiens, UniProt Q8TCC7); conditions: substrate estrone sulfate, Xenopus-OAT3, References 50, 53; read-out: IC50 (literature); cited from earlier work
# T2 construct: host or cells: Xenopus oocytes
# T2 sequence (Q8TCC7 1-542): T1 sequence (Q8TCC7 1-542)
# OAT1 [2] = assay: OAT1 gene expression in ciPTEC-OAT1 with or without EGF (quantitative PCR); assay type: cell-based, human; conditions: ciPTEC-OAT1, EGF 10 ng/mL, 48 hours
# Experimental: ciPTEC-OAT1. 4B2 DSM ACC3279 was cultured in phenol red-free DMEM/F12 (Invitrogen, Breda, The Netherlands), as described in example 1 here above. Cells were seeded at a density of 63,000 cell/cm^2, cultured for 24 hours at 33° C. and subsequently at 37° C. for 7 days. To study the effects of EGF, matured ciPTEC-OAT1 were treated for 48 hours in the presence or absence of EGF (10 ng/mL).
# OAT1 gene expression profiling was performed by isolating total RNA from cells grown in six-well plates, using an RNeasy Mini kit (Qiagen, Venlo, The Netherlands), according to the manufacturers specifications. Subsequently, cDNA was synthesized using the Omniscript RT-kit (Qiagen). Subsequently, quantitative PCR was performed in a CFX96 Real-Time PCR detection system (Bio-rad, Veenendaal, The Netherlands) according to the manufacturers conditions. GAPDH was used as reference gene for normalization and relative expression levels were calculated as fold change using the 2^−ΔΔCT method. The primer-probe sets for the quantitative PCR were obtained from Applied Biosystems: GAPDH—hs99999905 ml and OAT1—hs00537914.
# OAT1 [3] = molecular target: T3, OAT1 (Homo sapiens, UniProt Q4U2R8)
# T3 sequence (Q4U2R8 1-550 isoform Q4U2R8-2): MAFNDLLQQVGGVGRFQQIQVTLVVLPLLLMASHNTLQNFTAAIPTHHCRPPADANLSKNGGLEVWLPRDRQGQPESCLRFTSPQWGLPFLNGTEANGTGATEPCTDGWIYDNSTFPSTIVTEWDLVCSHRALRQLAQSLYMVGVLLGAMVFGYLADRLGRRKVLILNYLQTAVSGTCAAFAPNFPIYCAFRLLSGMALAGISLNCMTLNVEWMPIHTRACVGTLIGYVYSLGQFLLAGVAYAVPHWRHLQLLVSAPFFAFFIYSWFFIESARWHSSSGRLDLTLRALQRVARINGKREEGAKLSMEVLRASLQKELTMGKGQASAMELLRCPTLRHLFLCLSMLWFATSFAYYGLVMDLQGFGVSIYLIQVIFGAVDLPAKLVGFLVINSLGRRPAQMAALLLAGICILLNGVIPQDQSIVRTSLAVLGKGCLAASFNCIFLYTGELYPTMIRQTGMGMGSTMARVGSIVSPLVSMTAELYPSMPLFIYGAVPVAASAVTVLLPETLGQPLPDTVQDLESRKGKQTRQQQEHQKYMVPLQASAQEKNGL
# hOAT1-CHO and HEK-OAT1 = conditions: Ref 35, 37, cited from earlier work
# HeLa-OAT1 = molecular target: T4, HeLa-OAT1 (Homo sapiens, UniProt Q4U2R8); conditions: substrate PAH, HeLa-OAT1, Ref. 29; read-out: IC50 (literature); cited from earlier work
# T4 construct: host or cells: HeLa
# T4 sequence (Q4U2R8 1-563): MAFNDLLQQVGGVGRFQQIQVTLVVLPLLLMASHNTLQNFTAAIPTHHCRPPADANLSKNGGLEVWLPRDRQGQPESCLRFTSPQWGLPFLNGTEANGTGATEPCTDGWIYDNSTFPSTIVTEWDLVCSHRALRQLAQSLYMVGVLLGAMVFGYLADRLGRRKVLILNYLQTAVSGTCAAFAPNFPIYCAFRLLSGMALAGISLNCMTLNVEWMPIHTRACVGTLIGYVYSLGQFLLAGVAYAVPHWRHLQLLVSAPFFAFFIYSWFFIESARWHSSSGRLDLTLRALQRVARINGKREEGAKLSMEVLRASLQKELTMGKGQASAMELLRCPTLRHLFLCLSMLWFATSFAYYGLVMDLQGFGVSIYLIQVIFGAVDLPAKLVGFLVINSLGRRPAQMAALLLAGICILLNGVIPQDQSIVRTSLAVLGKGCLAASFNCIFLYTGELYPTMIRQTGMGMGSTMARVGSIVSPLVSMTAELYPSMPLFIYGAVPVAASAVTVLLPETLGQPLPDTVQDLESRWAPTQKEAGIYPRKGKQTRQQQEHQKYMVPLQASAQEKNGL
# CHO-OAT1 = molecular target: T5, CHO-OAT1 (Homo sapiens, UniProt Q4U2R8); conditions: read-out: KI (literature), cited from earlier work
# T5 construct: host or cells: CHO
# T5 sequence (Q4U2R8 1-563): T4 sequence (Q4U2R8 1-563)
# CHO-OAT3 = molecular target: T6, CHO-OAT3 (Homo sapiens, UniProt Q8TCC7); conditions: substrate Sitagliptin, CHO-OAT3, Reference 51; read-out: IC50 (literature); cited from earlier work
# T6 construct: host or cells: CHO
# T6 sequence (Q8TCC7 1-542): T1 sequence (Q8TCC7 1-542)
# OCT2 = OCT2 (Homo sapiens, UniProt O15244); conditions: ASP+ 1 μM, 60 min, HBSS, 37° C.; similar IC50 in ciPTEC parent, ciPTEC-OAT1 and ciPTEC-OAT3 (p>0.05)
# Sequence of OCT2 (O15244 whole entry): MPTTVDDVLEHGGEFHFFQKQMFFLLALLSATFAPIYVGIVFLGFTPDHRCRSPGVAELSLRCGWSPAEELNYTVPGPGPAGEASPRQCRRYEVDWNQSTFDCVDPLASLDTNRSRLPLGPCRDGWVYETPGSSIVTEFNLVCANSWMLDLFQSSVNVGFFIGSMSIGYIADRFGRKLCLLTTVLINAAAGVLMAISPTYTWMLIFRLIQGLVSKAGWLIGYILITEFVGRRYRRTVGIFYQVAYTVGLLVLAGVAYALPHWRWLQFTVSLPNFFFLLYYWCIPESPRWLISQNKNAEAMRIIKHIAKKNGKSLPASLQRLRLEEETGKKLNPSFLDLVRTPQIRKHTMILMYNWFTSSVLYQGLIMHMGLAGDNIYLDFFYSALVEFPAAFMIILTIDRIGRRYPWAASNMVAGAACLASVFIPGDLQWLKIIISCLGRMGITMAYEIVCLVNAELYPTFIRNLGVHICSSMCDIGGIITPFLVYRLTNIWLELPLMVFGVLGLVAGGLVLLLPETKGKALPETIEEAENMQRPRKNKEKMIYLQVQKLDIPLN
# [4] = 120 h, read-out: Inhibitory potency on cell viability, literature 120 h
# [5] = read-out: Inhibitory potency on cell viability, literature 48 h, 48 h
compound,measurement,setting,value
Cc1cn([C@H]2C[C@H](N=[N+]=[N-])[C@@H](CO)O2)c(=O)[nH]c1=O [Zidovudine],Fraction eliminated via the urine without metabolic alterations,[1],23%
same,Cell viability with efflux inhibitors,ciPTEC parent,did not affect cell viability
same,Cell viability with efflux inhibitors,"ciPTEC-OAT3; ciPTEC-OAT3, 10×Cmax (50 μM), with MK571 and KO143",did not affect cell viability
same,Cell viability with efflux inhibitors,"ciPTEC-OAT1; ciPTEC-OAT1, 10×Cmax (50 μM), with MK571 and KO143",did not affect cell viability
same,Cell viability as determined by the MTT assay,"ciPTEC-OAT1; ciPTEC-OAT1 and ciPTEC-OAT3, exposure for 24-72 h",did not affect cell viability
estrone sulfate,IC50,OAT3,2.1 ± 0.3 µM
same,IC50,Xenopus-OAT3,3 µM
"EGF: Epidermal growth factor (NSDSECPLSHDGYCLHDGVCMYIEALDKYACNCVVGYIGERCQYRDLKWWELR; Epidermal growth factor; UniProt P01133 971-1023, looked up)",OAT1 gene expression,OAT1 [2],significantly increased
Nc1ccn(C[C@@H](CO)OCP(=O)(O)O)c(=O)n1 [Cidofovir],IC50,OAT1 [3],71 ± 34 µM
same,IC50,hOAT1-CHO and HEK-OAT1; [4],3 ± 1 µM
same,IC50,hOAT1-CHO and HEK-OAT1; [5],0.5 ± 0.2 µM
C[C@H](Cn1cnc2c(N)ncnc21)OCP(=O)(O)O [Tenofovir],DDI index Cmax/IC50,OAT1 [3],0.014 and 0.019
same,IC50,OAT1 [3],42 ± 8 µM
same,IC50,HeLa-OAT1,29.3 µM
same,IC50,hOAT1-CHO and HEK-OAT1; [4],21 ± 7 µM
same,IC50,hOAT1-CHO and HEK-OAT1; [5],10 ± 2 µM
same,Cell viability (MTT) relative to no exposure,"ciPTEC-OAT3; ciPTEC-OAT3, 1 mM, 48 h",slightly decreased
same,Ki,"CHO-OAT1; Ref. 35, substrate and cell line not given",33.8 µM
same,Cell viability (MTT) relative to no exposure,ciPTEC-OAT1,significantly affected
same,IC50,"ciPTEC-OAT1; ciPTEC-OAT1, 24 h exposure, read-out: Inhibitory potency on cell viability (MTT), 24 h",114 ± 25 µM
same,IC50,"ciPTEC-OAT1; ciPTEC-OAT1, 72 h exposure, read-out: Inhibitory potency on cell viability (MTT), 72 h",223 ± 67 µM
same,IC50,"ciPTEC-OAT1; read-out: Inhibitory potency on cell viability (MTT), 48 h, ciPTEC-OAT1, 48 h exposure",189 ± 48 µM
CN/C(=N/CCSCc1nc[nH]c1C)NC#N [Cimetidine],IC50,OAT1 [3],654 ± 291 µM
same,IC50,OAT3,215 ± 162 µM
same,IC50,Xenopus-OAT3,53 µM
same,IC50,CHO-OAT3,79 µM
same,Inhibition of ASP+ uptake at OCT2,OCT2,significant inhibition
Nc1ncnc2c1ncn2CCOCP(=O)(O)O [Adefovir],IC50,OAT1 [3],23 ± 4 µM
same,IC50,HeLa-OAT1,8.1 µM
same,IC50,hOAT1-CHO and HEK-OAT1; [4],1.4 ± 0.7 µM
same,IC50,hOAT1-CHO and HEK-OAT1; [5],0.22 ± 0.08 µM
same,Ki,"CHO-OAT1; CHO-OAT1, substrate not given",23.8 µM
same,Cell viability (MTT) relative to no exposure,ciPTEC-OAT1,significantly affected
O=C1OC2(c3ccc(O)cc3Oc3cc(O)ccc32)c2ccccc21 [fluorescein],Km,OAT1 [3],0.8 ± 0.1 µM
same,Km,OAT3,3.7 ± 0.5 µM
Nc1ccc(C(=O)NCC(=O)O)cc1 [para-aminohippuric acid],IC50,OAT3,152 ± 3 µM
